{"source": "patent US20250195551A1", "about": "(L4 BIO LLC, priority 2023, published 2025)", "assay": "Excipient compatibility study", "type": "physicochemical", "conditions": "for Chromatographic purity by HPLC (Assay) / Total Impurities % (excluding API impurities %): 40° C./75% RH", "method": "An excipient compatibility study was initiated with selected excipients ranging from oils to surfactants based on equilibrium solubility results (Table 2). […] After solutions were prepared using a hand-held homogenizer (Model IKAT10 Ultra-Turrax), each excipient sample was aliquoted in amber vials, approximately 10% water was added in each excipient aliquot, and bench scale gel stripe OET-004037 was also made and added in a separate set of aliquot samples at approximately 1:1 w/w.\nAll samples were stored at 40° C./75% relative humidity (RH) condition (Model: Lunaire environmental chamber) and tested by developmental reversed phase HPLC method for Assay/Related Substances at T=0, 2 weeks, and 1 month.", "key": {"[1]": {"conditions": "in Maisine CC, Sample: Gel Stripe (1:1 w/w), T = 2 weeks"}, "[2]": {"conditions": "in Masester E8120, Sample: 10% water, T = 1 months"}, "[3]": {"conditions": "in Masester E8120, Sample: 10% water, T = 2 weeks"}, "[4]": {"conditions": "in Masester E8120, Sample: Control, T = 0"}, "[5]": {"conditions": "in Masester E8120, Sample: Control, T = 1 months"}, "[6]": {"conditions": "in Masester E8120, Sample: Control, T = 2 weeks"}, "[7]": {"conditions": "in Masester E8120, Sample: Gel Stripe (1:1 w/w), T = 1 months"}, "[8]": {"conditions": "in Masester E8120, Sample: Gel Stripe (1:1 w/w), T = 2 weeks"}, "[9]": {"conditions": "in Oleic acid, Sample: 10% water, T = 2 weeks"}, "[10]": {"conditions": "in Oleic acid, Sample: Control, T = 0"}, "[11]": {"conditions": "in Oleic acid, Sample: Control, T = 2 weeks"}, "[12]": {"conditions": "in Oleic acid, Sample: Gel Stripe (1:1 w/w), T = 2 weeks"}, "[13]": {"conditions": "in PEG 400, Sample: 10% water, T = 2 weeks"}, "[14]": {"conditions": "in PEG 400, Sample: Control, T = 0"}, "[15]": {"conditions": "in PEG 400, Sample: Control, T = 2 weeks"}, "[16]": {"conditions": "in PEG 400, Sample: Gel Stripe (1:1 w/w), T = 2 weeks"}, "[17]": {"conditions": "in Tween 80, Sample: 10% water, T = 1 months"}, "[18]": {"conditions": "in Tween 80, Sample: 10% water, T = 2 weeks"}, "[19]": {"conditions": "in Tween 80, Sample: Control, T = 0"}, "[20]": {"conditions": "in Tween 80, Sample: Control, T = 1 months"}, "[21]": {"conditions": "in Tween 80, Sample: Control, T = 2 weeks"}, "[22]": {"conditions": "in Tween 80, Sample: Gel Stripe (1:1 w/w), T = 1 months"}, "[23]": {"conditions": "in Tween 80, Sample: Gel Stripe (1:1 w/w), T = 2 weeks"}, "[24]": {"conditions": "in Vitamin E TPGS, Sample: 10% water, T = 1 months"}, "[25]": {"conditions": "in Vitamin E TPGS, Sample: 10% water, T = 2 weeks"}, "[26]": {"conditions": "in Vitamin E TPGS, Sample: Control, T = 0"}, "[27]": {"conditions": "in Vitamin E TPGS, Sample: Control, T = 1 months"}, "[28]": {"conditions": "in Vitamin E TPGS, Sample: Control, T = 2 weeks"}, "[29]": {"conditions": "in Vitamin E TPGS, Sample: Gel Stripe (1:1 w/w), T = 1 months"}, "[30]": {"conditions": "in Vitamin E TPGS, Sample: Gel Stripe (1:1 w/w), T = 2 weeks"}}}
{"substance": "ivermectin", "values": [{"measurement": "Chromatographic purity by HPLC (Assay)", "setting": "[1]", "result": 96.15, "unit": "% area"}, {"measurement": "Total Impurities % (excluding API impurities %)", "setting": "[1]", "result": 0.33, "unit": "% adjusted area"}, {"measurement": "Chromatographic purity by HPLC (Assay)", "setting": "[2]", "result": 91.68, "unit": "% area"}, {"measurement": "Total Impurities % (excluding API impurities %)", "setting": "[2]", "result": 6.60, "unit": "% adjusted area"}, {"measurement": "Chromatographic purity by HPLC (Assay)", "setting": "[3]", "result": 95.11, "unit": "% area"}, {"measurement": "Total Impurities % (excluding API impurities %)", "setting": "[3]", "result": 2.27, "unit": "% adjusted area"}, {"measurement": "Chromatographic purity by HPLC (Assay)", "setting": "[4]", "result": 97.58, "unit": "% area"}, {"measurement": "Total Impurities % (excluding API impurities %)", "setting": "[4]", "result": 0.17, "unit": "% adjusted area"}, {"measurement": "Chromatographic purity by HPLC (Assay)", "setting": "[5]", "result": 97.06, "unit": "% area"}, {"measurement": "Total Impurities % (excluding API impurities %)", "setting": "[5]", "result": 0.45, "unit": "% adjusted area"}, {"measurement": "Chromatographic purity by HPLC (Assay)", "setting": "[6]", "result": 96.81, "unit": "% area"}, {"measurement": "Total Impurities % (excluding API impurities %)", "setting": "[6]", "result": 0.58, "unit": "% adjusted area"}, {"measurement": "Chromatographic purity by HPLC (Assay)", "setting": "[7]", "result": 97.31, "unit": "% area"}, {"measurement": "Total Impurities % (excluding API impurities %)", "setting": "[7]", "result": 0.18, "unit": "% adjusted area"}, {"measurement": "Chromatographic purity by HPLC (Assay)", "setting": "[8]", "result": 97.35, "unit": "% area"}, {"measurement": "Total Impurities % (excluding API impurities %)", "setting": "[8]", "result": 0.11, "unit": "% adjusted area"}, {"measurement": "Chromatographic purity by HPLC (Assay)", "setting": "[9]", "result": 86.02, "unit": "% area"}, {"measurement": "Total Impurities % (excluding API impurities %)", "setting": "[9]", "result": 9.89, "unit": "% adjusted area"}, {"measurement": "Chromatographic purity by HPLC (Assay)", "setting": "[10]", "result": 99.60, "unit": "% area"}, {"measurement": "Total Impurities % (excluding API impurities %)", "setting": "[10]", "result": "<LOQ"}, {"measurement": "Chromatographic purity by HPLC (Assay)", "setting": "[11]", "result": 83.55, "unit": "% area"}, {"measurement": "Total Impurities % (excluding API impurities %)", "setting": "[11]", "result": 17.27, "unit": "% adjusted area"}, {"measurement": "Chromatographic purity by HPLC (Assay)", "setting": "[12]", "result": 83.73, "unit": "% area"}, {"measurement": "Total Impurities % (excluding API impurities %)", "setting": "[12]", "result": 11.82, "unit": "% adjusted area"}, {"measurement": "Chromatographic purity by HPLC (Assay)", "setting": "[13]", "result": 94.35, "unit": "% area"}, {"measurement": "Total Impurities % (excluding API impurities %)", "setting": "[13]", "result": 3.15, "unit": "% adjusted area"}, {"measurement": "Chromatographic purity by HPLC (Assay)", "setting": "[14]", "result": 97.58, "unit": "% area"}, {"measurement": "Total Impurities % (excluding API impurities %)", "setting": "[14]", "result": 0.10, "unit": "% adjusted area"}, {"measurement": "Chromatographic purity by HPLC (Assay)", "setting": "[15]", "result": 89.36, "unit": "% area"}, {"measurement": "Total Impurities % (excluding API impurities %)", "setting": "[15]", "result": 8.54, "unit": "% adjusted area"}, {"measurement": "Chromatographic purity by HPLC (Assay)", "setting": "[16]", "result": 96.92, "unit": "% area"}, {"measurement": "Total Impurities % (excluding API impurities %)", "setting": "[16]", "result": 0.50, "unit": "% adjusted area"}, {"measurement": "Chromatographic purity by HPLC (Assay)", "setting": "[17]", "result": 91.18, "unit": "% area"}, {"measurement": "Total Impurities % (excluding API impurities %)", "setting": "[17]", "result": 6.94, "unit": "% adjusted area"}, {"measurement": "Chromatographic purity by HPLC (Assay)", "setting": "[18]", "result": 93.02, "unit": "% area"}, {"measurement": "Total Impurities % (excluding API impurities %)", "setting": "[18]", "result": 3.53, "unit": "% adjusted area"}, {"measurement": "Chromatographic purity by HPLC (Assay)", "setting": "[19]", "result": 97.53, "unit": "% area"}, {"measurement": "Total Impurities % (excluding API impurities %)", "setting": "[19]", "result": 0.16, "unit": "% adjusted area"}, {"measurement": "Chromatographic purity by HPLC (Assay)", "setting": "[20]", "result": 88.45, "unit": "% area"}, {"measurement": "Total Impurities % (excluding API impurities %)", "setting": "[20]", "result": 10.55, "unit": "% adjusted area"}, {"measurement": "Chromatographic purity by HPLC (Assay)", "setting": "[21]", "result": 91.87, "unit": "% area"}, {"measurement": "Total Impurities % (excluding API impurities %)", "setting": "[21]", "result": 4.86, "unit": "% adjusted area"}, {"measurement": "Chromatographic purity by HPLC (Assay)", "setting": "[22]", "result": 93.51, "unit": "% area"}, {"measurement": "Total Impurities % (excluding API impurities %)", "setting": "[22]", "result": 4.22, "unit": "% adjusted area"}, {"measurement": "Chromatographic purity by HPLC (Assay)", "setting": "[23]", "result": 93.97, "unit": "% area"}, {"measurement": "Total Impurities % (excluding API impurities %)", "setting": "[23]", "result": 2.43, "unit": "% adjusted area"}, {"measurement": "Chromatographic purity by HPLC (Assay)", "setting": "[24]", "result": 97.46, "unit": "% area"}, {"measurement": "Total Impurities % (excluding API impurities %)", "setting": "[24]", "result": "<LOQ"}, {"measurement": "Chromatographic purity by HPLC (Assay)", "setting": "[25]", "result": 96.99, "unit": "% area"}, {"measurement": "Total Impurities % (excluding API impurities %)", "setting": "[25]", "result": 0.42, "unit": "% adjusted area"}, {"measurement": "Chromatographic purity by HPLC (Assay)", "setting": "[26]", "result": 97.74, "unit": "% area"}, {"measurement": "Total Impurities % (excluding API impurities %)", "setting": "[26]", "result": "<LOQ"}, {"measurement": "Chromatographic purity by HPLC (Assay)", "setting": "[27]", "result": 97.37, "unit": "% area"}, {"measurement": "Total Impurities % (excluding API impurities %)", "setting": "[27]", "result": 0.11, "unit": "% adjusted area"}, {"measurement": "Chromatographic purity by HPLC (Assay)", "setting": "[28]", "result": 97.43, "unit": "% area"}, {"measurement": "Total Impurities % (excluding API impurities %)", "setting": "[28]", "result": "<LOQ"}, {"measurement": "Chromatographic purity by HPLC (Assay)", "setting": "[29]", "result": 97.74, "unit": "% area"}, {"measurement": "Total Impurities % (excluding API impurities %)", "setting": "[29]", "result": "<LOQ"}, {"measurement": "Chromatographic purity by HPLC (Assay)", "setting": "[30]", "result": 97.50, "unit": "% area"}, {"measurement": "Total Impurities % (excluding API impurities %)", "setting": "[30]", "result": "<LOQ"}, {"measurement": "Chemical compatibility with the API", "setting": "oily vehicles including Maisine CC, fractionated coconut oil, and oleic acid", "result": "good chemical compatibility"}]}
